Assay results reported in patent US6979686B1, “Substituted pyrazoles as p38 kinase inhibitors” (Pharmacia Corporation, priority 2001, dated 2005).
pIC50: −log10 of the molar value. Read-outs that look alike come from different tables or passages of the source. Each block holds one compound with its values, some of them ahead of it.

Biological target: T1, human p38 kinase alpha (Homo sapiens, UniProt Q16539)
T1 construct: GST (N, cleaved yes); made in house; host or cells: E. coli DH10B
Assay: p38 kinase in vitro assay, phosphorylation of biotinylated PHAS-I with 32P-ATP
Format: biochemical
Details: for pIC50: read-out: P38 alpha kinase IC50

[1] = in vitro P38-alpha kinase inhibition

T1 sequence (Q16539 whole entry): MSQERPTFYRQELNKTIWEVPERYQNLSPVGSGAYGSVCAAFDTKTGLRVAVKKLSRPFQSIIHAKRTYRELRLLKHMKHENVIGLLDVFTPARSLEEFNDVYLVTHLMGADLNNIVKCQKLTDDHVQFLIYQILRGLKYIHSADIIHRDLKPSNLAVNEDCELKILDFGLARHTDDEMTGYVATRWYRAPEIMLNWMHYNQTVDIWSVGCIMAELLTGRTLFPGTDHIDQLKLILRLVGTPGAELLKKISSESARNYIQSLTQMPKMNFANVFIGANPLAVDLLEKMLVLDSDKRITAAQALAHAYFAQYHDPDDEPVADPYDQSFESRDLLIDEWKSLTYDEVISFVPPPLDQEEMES

pIC50 [1]: 6.30
SMILES: CC(NC(=O)c1ccccc1I)c1[nH]nc(-c2ccc(F)cc2)c1-c1ccncc1 (stereo not shown) [Example B-0531]

pIC50 (in vitro P38-alpha kinase): 7.26
SMILES: CN1CCCC1CCNC(=O)NCCCc1[nH]nc(-c2ccc(F)cc2)c1-c1ccncc1 (stereo not shown) [Example B-1315]

P38 alpha kinase % inhib @ conc. (@ 1.0 uM): 95.0% @
SMILES: CCS(=O)(=O)NCCCc1[nH]nc(-c2ccc(F)cc2)c1-c1ccncc1 [Example B-1200]

pIC50 [1]: 6.33
SMILES: O=C(NCCc1[nH]nc(-c2ccc(F)cc2)c1-c1ccncc1)c1ccccc1F [Example B-1150]

pIC50 (in vitro P38-alpha kinase): 5.54
SMILES: O=S(=O)(c1c(Cl)cccc1Cl)N1CCC(c2[nH]nc(-c3ccc(F)cc3)c2-c2ccncc2)CC1 [Example B-1451]

pIC50 [1]: 5.72
SMILES: CNC(=O)CCC(NC(=O)Nc1ccc(OC)cc1OC)c1[nH]nc(-c2ccc(F)cc2)c1-c1ccncc1 (stereo not shown) [Example B-0884]

pIC50 (in vitro P38-alpha kinase): 7.23
SMILES: O=C(NCCCc1[nH]nc(-c2ccc(F)cc2)c1-c1ccncc1)c1ccc(C(F)(F)F)cc1 [Example B-1356]

P38 alpha kinase % inhib @ conc. (uM) (@ 1.0 uM): 54.0% @
SMILES: O=C(NCCc1[nH]nc(-c2ccc(F)cc2)c1-c1ccncc1)c1ccccc1C(F)(F)F [Example B-0996]

pIC50 [1]: 6.52
SMILES: CC(NC(=O)C1CCCN1)c1[nH]nc(-c2ccc(F)cc2)c1-c1ccncc1 (stereo not shown) [Example B-0604]

P38 alpha kinase % inhib @ conc. (uM) (@ 1.0 uM): 78.0% @
SMILES: O=S(=O)(NCCCc1[nH]nc(-c2ccc(F)cc2)c1-c1ccncc1)c1ccc(F)cc1 [Example B-1190]

pIC50 [1]: 7.16
SMILES: Cn1cnc(S(=O)(=O)NCCc2[nH]nc(-c3ccc(F)cc3)c2-c2ccncc2)c1 [Example B-1114]

pIC50 (in vitro P38-alpha kinase): 6.49
SMILES: O=C(c1cccc(Cl)c1)N1CCC(c2[nH]nc(-c3ccc(F)cc3)c2-c2ccncc2)CC1 [Example B-1394]

P38 alpha kinase % inhib @ conc. (uM) (@ 1.0 uM): 62.0% @
SMILES: CC(=O)OCC(=O)NCCc1[nH]nc(-c2ccc(F)cc2)c1-c1ccncc1 [Example B-0981]

pIC50 (in vitro P38-alpha kinase): 7.14
SMILES: O=C(NCCCc1[nH]nc(-c2ccc(F)cc2)c1-c1ccncc1)c1c(F)cc(F)cc1F [Example B-1336]

pIC50 (in vitro P38-alpha kinase): 6.00
SMILES: O=S(=O)(c1cccc2nonc12)N1CCC(c2[nH]nc(-c3ccc(F)cc3)c2-c2ccncc2)CC1 [Example B-1436]

pIC50 (in vitro P38-alpha kinase): > 7.00
SMILES: O=S(=O)(Cc1ccccc1)N1CCC(c2[nH]nc(-c3ccc(F)cc3)c2-c2ccncc2)CC1 [Example B-1374]

P38 alpha kinase IC50, uM or % inhib @ conc. (uM): % inhib (@ 10.0 uM): 90.0% @
SMILES: Cc1c(-c2ccncc2)c(-c2ccc(F)cc2)nn1CC(=O)Nc1cc([N+](=O)[O-])cc([N+](=O)[O-])c1 [Example B-2430]

P38 alpha kinase % inhib @ conc. (uM) (@ 1.0 uM): 57.0% @
SMILES: CC(=O)OC(C)C(=O)NCCc1[nH]nc(-c2ccc(F)cc2)c1-c1ccncc1 (stereo not shown) [Example B-0993]

P38 alpha kinase IC50, uM or % inhib @ conc. (uM): % inhib (@ 10.0 uM): 94.0% @
SMILES: Cc1c(-c2ccncc2)c(-c2ccc(F)cc2)nn1CC(=O)Nc1ccc(Cl)nc1 [Example B-2415]

P38 alpha kinase % inhib @ conc. (@ 10.0 uM): 69.0% @
SMILES: Cc1c(-c2ccncc2)c(-c2ccc(F)cc2)nn1CC(=O)NC1CCSC1=O (stereo not shown) [Example B-2323]

pIC50 [1]: 4.59
SMILES: CC(NC(=O)NC(Cc1ccccc1)c1[nH]nc(-c2ccc(F)cc2)c1-c1ccncc1)c1ccccc1 (stereo not shown) [Example B-0736]

pIC50 [1]: 4.84
SMILES: CC(NC(=O)c1ccc(F)c(C(F)(F)F)c1)c1[nH]nc(-c2ccc(F)cc2)c1-c1ccncc1 (stereo not shown) [Example B-0689]

P38 alpha kinase % inhib @ conc. (uM) (@ 1.0 uM): 75.0% @
SMILES: CC(C)C(=O)NCCc1[nH]nc(-c2ccc(F)cc2)c1-c1ccncc1 [Example B-0983]

P38 alpha kinase % inhib @ conc. (uM) (@ 1.0 uM): 85.0% @
SMILES: O=C(NCCc1[nH]nc(-c2ccc(F)cc2)c1-c1ccncc1)C1CC1 [Example B-0989]

P38 alpha kinase IC50, uM or % inhib @ conc. (uM): % inhib (@ 10.0 uM): 70.0% @
SMILES: CCc1cccc(CC)c1NC(=O)Cn1nc(-c2ccc(F)cc2)c(-c2ccncc2)c1C [Example B-2420]

P38 alpha kinase % inhib @ conc. (@ 1.0 uM): 89.0% @
SMILES: CC(C)OC(=O)NCCCc1[nH]nc(-c2ccc(F)cc2)c1-c1ccncc1 [Example B-1234]

pIC50 [1]: 4.89
SMILES: CC(NC(=O)c1cc(C(F)(F)F)ccc1F)c1[nH]nc(-c2ccc(F)cc2)c1-c1ccncc1 (stereo not shown) [Example B-0683]

pIC50 [1]: 5.70
SMILES: Cc1noc(C)c1S(=O)(=O)NC(C)c1[nH]nc(-c2ccc(F)cc2)c1-c1ccncc1 (stereo not shown) [Example B-0653]

pIC50 (in vitro P38-alpha kinase): 5.60
SMILES: O=S(=O)(c1ccc(OC(F)(F)F)cc1)N1CCC(c2[nH]nc(-c3ccc(F)cc3)c2-c2ccncc2)CC1 [Example B-1477]

pIC50 [1]: 4.62
SMILES: COc1ccc(NC(=O)NC(Cc2ccccc2)c2[nH]nc(-c3ccc(F)cc3)c2-c2ccncc2)cc1 (stereo not shown) [Example B-0786]

P38 alpha kinase % inhib @ conc. (uM) (@ 1.0 uM): 64.0% @
SMILES: CC(C)NC(=O)NCCc1[nH]nc(-c2ccc(F)cc2)c1-c1ccncc1 [Example B-0937]

P38 alpha kinase % inhib @ conc. (uM) (@ 1.0 uM): 79.0% @
SMILES: C[C@H](NC(=O)NCCc1[nH]nc(-c2ccc(F)cc2)c1-c1ccncc1)c1ccccc1 [Example B-1042]

pIC50 (in vitro P38-alpha kinase): 6.74
SMILES: COC(=O)CCNC(=O)Cn1nc(-c2ccc(F)cc2)c(-c2ccncc2)c1C [Example B-2301]

P38 alpha kinase % inhib @ conc. (uM) (@ 1.0 uM): 78.0% @
SMILES: CC(=O)NCCc1[nH]nc(-c2ccc(F)cc2)c1-c1ccncc1 [Example B-0987]

P38 alpha kinase % inhib @ conc. (uM) (@ 1.0 uM): 57.0% @
SMILES: O=C(NCCc1[nH]nc(-c2ccc(F)cc2)c1-c1ccncc1)Nc1ccccc1F [Example B-1038]

P38 alpha kinase % inhib @ conc. (uM) (@ 1.0 uM): 79.0% @
SMILES: O=C(NCCCc1[nH]nc(-c2ccc(F)cc2)c1-c1ccncc1)C1CCCC1 [Example B-1181]

pIC50 [1]: 4.85
SMILES: O=C(Nc1ccc(F)cc1)NC(Cc1ccccc1)c1[nH]nc(-c2ccc(F)cc2)c1-c1ccncc1 (stereo not shown) [Example B-0773]

pIC50 [1]: 7.24
SMILES: CC(=O)NC(Cc1ccccc1)c1[nH]nc(-c2ccc(F)cc2)c1-c1ccncc1 (stereo not shown) [Example B-0803]

P38 alpha kinase % inhib @ conc. (uM) (@ 1.0 uM): 89.0% @
SMILES: CS(=O)(=O)NCCc1[nH]nc(-c2ccc(F)cc2)c1-c1ccncc1 [Example B-1024]

P38 alpha kinase % inhib @ conc. (@ 10.0 uM): 71.0% @
SMILES: Cc1c(-c2ccncc2)c(-c2ccc(F)cc2)nn1CC(=O)NC(C)c1ccc(Br)cc1 (stereo not shown) [Example B-2344]

pIC50 [1]: > 7.00
SMILES: CC(NS(=O)(=O)c1ccc(C(F)(F)F)cc1)c1[nH]nc(-c2ccc(F)cc2)c1-c1ccncc1 (stereo not shown) [Example B-0636]

pIC50 (in vitro P38-alpha kinase): 6.54
SMILES: Cc1c(-c2ccncc2)c(-c2ccc(F)cc2)nn1CC(=O)NCC(=O)OC(C)(C)C [Example B-2309]

pIC50 [1]: 5.51
SMILES: COc1cccc(CC(=O)NC(Cc2ccccc2)c2[nH]nc(-c3ccc(F)cc3)c2-c2ccncc2)c1 (stereo not shown) [Example B-0817]

pIC50 (in vitro P38-alpha kinase): 6.66
SMILES: O=S(=O)(NCCCc1[nH]nc(-c2ccc(F)cc2)c1-c1ccncc1)c1ccc(Br)cc1 [Example B-1237]

pIC50 [1]: 6.19
SMILES: CC(NS(=O)(=O)CC12CCC(CC1=O)C2(C)C)c1[nH]nc(-c2ccc(F)cc2)c1-c1ccncc1 (stereo not shown) [Example B-0611]

P38 alpha kinase % inhib @ conc. (@ 100.0 uM): 81% @
SMILES: CC(=O)N1CCN(C(=O)Cn2nc(-c3ccc(F)cc3)c(-c3ccncc3)c2C)CC1 [Example B-2380]

P38 alpha kinase IC50, uM or % inhib @ conc. (uM): % inhib (@ 10.0 uM): 38.0% @
SMILES: Cc1c(-c2ccncc2)c(-c2ccc(F)cc2)nn1CC(=O)N(C)CCc1ccncc1 [Example B-2386]

pIC50 (in vitro P38-alpha kinase): 5.44
SMILES: COc1cc(CNC(=O)Cn2nc(-c3ccc(F)cc3)c(-c3ccncc3)c2C)cc(OC)c1OC [Example B-2297]

P38 alpha kinase % inhib @ conc. (@ 10.0 uM): 38.0% @
SMILES: CC[C@H](C)[C@H](NC(=O)Cn1nc(-c2ccc(F)cc2)c(-c2ccncc2)c1C)C(=O)OC [Example B-2353]

P38 alpha kinase IC50, uM or % inhib @ conc. (uM): % inhib (@ 10.0 uM): 92.0% @
SMILES: Cc1c(-c2ccncc2)c(-c2ccc(F)cc2)nn1CC(=O)Nc1ccccc1Cc1ccccc1 [Example B-2434]

P38 alpha kinase % inhib @ conc. (uM) (@ 1.0 uM): 72.0% @
SMILES: O=C(NCCc1[nH]nc(-c2ccc(F)cc2)c1-c1ccncc1)C1CCC1 [Example B-0988]

pIC50 [1]: 6.52
SMILES: CCOC(=O)NC(Cc1ccccc1)c1[nH]nc(-c2ccc(F)cc2)c1-c1ccncc1 (stereo not shown) [Example B-0793]

P38 alpha kinase % inhib @ conc. (@ 1.0 uM): 81.0% @
SMILES: CC(C)NC(=O)NCCCc1[nH]nc(-c2ccc(F)cc2)c1-c1ccncc1 [Example B-1206]

pIC50 (in vitro P38-alpha kinase): 5.63
SMILES: O=S(=O)(c1ccccc1OC(F)(F)F)N1CCC(c2[nH]nc(-c3ccc(F)cc3)c2-c2ccncc2)CC1 [Example B-1463]

P38 alpha kinase % inhib @ conc. (uM) (@ 1.0 uM): 80.0% @
SMILES: O=C(NCCCc1[nH]nc(-c2ccc(F)cc2)c1-c1ccncc1)c1ccc(F)c(F)c1F [Example B-1174]

pIC50 [1]: 5.96
SMILES: CCCOC(=O)NC(Cc1ccccc1)c1[nH]nc(-c2ccc(F)cc2)c1-c1ccncc1 (stereo not shown) [Example B-0792]

pIC50 [1]: 6.09
SMILES: CC(NS(=O)(=O)C(C)C)c1[nH]nc(-c2ccc(F)cc2)c1-c1ccncc1 (stereo not shown) [Example B-0564]

pIC50 [1]: > 7.00
SMILES: Cc1cccc(Cl)c1S(=O)(=O)NCCc1[nH]nc(-c2ccc(F)cc2)c1-c1ccncc1 [Example B-1095]

pIC50 [1]: 6.03
SMILES: O=S(=O)(Cc1ccccc1)NC(Cc1ccccc1)c1[nH]nc(-c2ccc(F)cc2)c1-c1ccncc1 (stereo not shown) [Example B-0756]

pIC50 [1]: 5.46
SMILES: CC(NC(=O)C1CCC1)c1[nH]nc(-c2ccc(F)cc2)c1-c1ccncc1 (stereo not shown) [Example B-0537]

P38 alpha kinase % inhib @ conc. (@ 1.0 uM): 82.0% @
SMILES: O=C(NCCCc1[nH]nc(-c2ccc(F)cc2)c1-c1ccncc1)N1CCOCC1 [Example B-1210]

pIC50 (in vitro P38-alpha kinase): 7.89
SMILES: O=C(NCCCc1[nH]nc(-c2ccc(F)cc2)c1-c1ccncc1)c1cccc(Cl)c1 [Example B-1354]

pIC50 [1]: 7.42
SMILES: O=C(NCCc1[nH]nc(-c2ccc(F)cc2)c1-c1ccncc1)c1c(F)cccc1C(F)(F)F [Example B-1137]

pIC50 [1]: 6.64
SMILES: CC(NC(=O)c1cccc(F)c1F)c1[nH]nc(-c2ccc(F)cc2)c1-c1ccncc1 (stereo not shown) [Example B-0695]

P38 alpha kinase % inhib @ conc. (@ 10.0 uM): 47.0% @
SMILES: CCN1CC(NC(=O)Cn2nc(-c3ccc(F)cc3)c(-c3ccncc3)c2C)CN1CC [Example B-2357]

P38 alpha kinase % inhib @ conc. (uM) (@ 1.0 uM): 72.0% 2
SMILES: Cc1ccc(S(=O)(=O)NC(Cc2ccccc2)C(=O)NCCc2[nH]nc(-c3ccc(F)cc3)c2-c2ccncc2)cc1 (stereo not shown) [Example B-1011]

pIC50 [1]: 6.36
SMILES: O=C(NCCc1[nH]nc(-c2ccc(F)cc2)c1-c1ccncc1)c1ccc(Cl)cc1Cl [Example B-1144]

P38 alpha kinase IC50, uM or % inhib @ conc. (uM): % inhib (@ 10.0 uM): 81.0% @
SMILES: Cc1c(-c2ccncc2)c(-c2ccc(F)cc2)nn1CC(=O)Nc1ccc(C(F)(F)F)cc1 [Example B-2439]

P38 alpha kinase % inhib @ conc. (uM) (@ 1.0 uM): 69.0% @
SMILES: CC(C)NC(=O)NCCc1[nH]nc(-c2ccc(F)cc2)c1-c1ccncc1 [Example B-1029]

P38 alpha kinase % inhib @ conc. (@ 10.0 uM): 82.0% @
SMILES: Cc1c(-c2ccncc2)c(-c2ccc(F)cc2)nn1CC(=O)NC1CCCCCC1 [Example B-2335]
